According to PubChem BioAssay (NCI):
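Exposure lasted 48 hours, with cells grown in 96-well plates and compounds tested at five concentrations. TGI marks complete inhibition of growth.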

How the values were obtained:
Assay in all cases: DTP human tumour cell line panel, 48 h
T-47D breast = test system: T-47D breast
SF-539 CNS = test system: SF-539 CNS
HOP-92 NSCLC = test system: HOP-92 NSCLC
NCI-H522 lung = test system: NCI-H522 lung
SR leukemia = test system: SR leukemia
RXF 393 renal = test system: RXF 393 renal
UACC-62 melanoma = test system: UACC-62 melanoma
HCT-116 colon = test system: HCT-116 colon
U251 CNS = test system: U251 CNS
A549 NSCLC = test system: A549 NSCLC
NCI-H460 lung = test system: NCI-H460 lung
PC-3 prostate = test system: PC-3 prostate
SF-268 CNS = test system: SF-268 CNS
DU-145 prostate = test system: DU-145 prostate
MDA-MB-231 breast = test system: MDA-MB-231 breast
SNB-75 CNS = test system: SNB-75 CNS
UACC-257 melanoma = test system: UACC-257 melanoma
KM12 colon = test system: KM12 colon
OVCAR-8 ovarian = test system: OVCAR-8 ovarian
MALME-3M melanoma = test system: MALME-3M melanoma
SNB-19 CNS = test system: SNB-19 CNS
M14 melanoma = test system: M14 melanoma
OVCAR-4 ovarian = test system: OVCAR-4 ovarian
SK-MEL-5 melanoma = test system: SK-MEL-5 melanoma
NCI-H23 lung = test system: NCI-H23 lung
SK-MEL-28 melanoma = test system: SK-MEL-28 melanoma
SW-620 colon = test system: SW-620 colon
EKVX NSCLC = test system: EKVX NSCLC
OVCAR-3 ovarian = test system: OVCAR-3 ovarian
A498 renal = test system: A498 renal
NCI/ADR-RES ovarian = test system: NCI/ADR-RES ovarian
HL-60(TB) leukemia = test system: HL-60(TB) leukemia
MDA-N = test system: MDA-N
HS 578T breast = test system: HS 578T breast
MCF7 breast = test system: MCF7 breast
NCI-H226 lung = test system: NCI-H226 lung
SF-295 CNS = test system: SF-295 CNS
LOX IMVI melanoma = test system: LOX IMVI melanoma
ACHN renal = test system: ACHN renal
786-0 renal = test system: 786-0 renal
BT-549 breast = test system: BT-549 breast
MDA-MB-435 = test system: MDA-MB-435
TK-10 renal = test system: TK-10 renal
COLO 205 colon = test system: COLO 205 colon
SK-MEL-2 melanoma = test system: SK-MEL-2 melanoma
SK-OV-3 ovarian = test system: SK-OV-3 ovarian
K-562 leukemia = test system: K-562 leukemia
SN12C renal = test system: SN12C renal
CAKI-1 renal = test system: CAKI-1 renal
OVCAR-5 ovarian = test system: OVCAR-5 ovarian
MOLT-4 leukemia = test system: MOLT-4 leukemia
UO-31 renal = test system: UO-31 renal
HCC-2998 colon = test system: HCC-2998 colon
IGROV1 ovarian = test system: IGROV1 ovarian
HOP-62 NSCLC = test system: HOP-62 NSCLC
CCRF-CEM leukemia = test system: CCRF-CEM leukemia
HT29 colon = test system: HT29 colon
HCT-15 colon = test system: HCT-15 colon
RPMI-8226 leukemia = test system: RPMI-8226 leukemia

Molecule `Cc1cc(C)c2c(n1)S(=O)(=O)N(CCCN1CCN(c3cccc(C(F)(F)F)c3)CC1)c1c-2nn(C)c1C` has a TGI (T-47D breast) of over 100 µM, a TGI (SF-539 CNS) of over 100 µM and a TGI (HOP-92 NSCLC) of over 100 µM. The TGI (NCI-H522 lung) was over 100 µM, the TGI (SR leukemia) was 62 µM and the TGI (RXF 393 renal) was over 100 µM. The TGI (UACC-62 melanoma) was over 100 µM, the TGI (HCT-116 colon) was over 100 µM and the TGI (U251 CNS) was over 100 µM. It also gave a TGI (A549 NSCLC) of over 100 µM, a TGI (NCI-H460 lung) of over 100 µM and a TGI (PC-3 prostate) of over 100 µM. The TGI (SF-268 CNS) was over 100 µM, the TGI (DU-145 prostate) was over 100 µM and the TGI (MDA-MB-231 breast) was over 100 µM. For the same molecule, the TGI (SNB-75 CNS) was over 100 µM, the TGI (UACC-257 melanoma) was over 100 µM and the TGI (KM12 colon) was over 100 µM. For the same molecule, the TGI (OVCAR-8 ovarian) was over 100 µM, the TGI (MALME-3M melanoma) was over 100 µM and the TGI (SNB-19 CNS) was over 100 µM. The TGI (M14 melanoma) was over 100 µM, the TGI (OVCAR-4 ovarian) was over 100 µM and the TGI (SK-MEL-5 melanoma) was over 100 µM. For the same molecule, the TGI (NCI-H23 lung) was over 100 µM, the TGI (SK-MEL-28 melanoma) was over 100 µM and the TGI (SW-620 colon) was over 100 µM. For the same molecule, the TGI (EKVX NSCLC) was over 100 µM, the TGI (OVCAR-3 ovarian) was over 100 µM and the TGI (A498 renal) was over 100 µM. The TGI (NCI/ADR-RES ovarian) was over 100 µM, the TGI (HL-60(TB) leukemia) was over 100 µM and the TGI (MDA-N) was over 100 µM. For the same molecule, the TGI (HS 578T breast) was over 100 µM, the TGI (MCF7 breast) was over 100 µM and the TGI (NCI-H226 lung) was over 100 µM. The TGI (SF-295 CNS) was over 100 µM, the TGI (LOX IMVI melanoma) was over 100 µM and the TGI (ACHN renal) was over 100 µM. The TGI (786-0 renal) was over 100 µM, the TGI (BT-549 breast) was over 100 µM and the TGI (MDA-MB-435) was over 100 µM. It also gave a TGI (TK-10 renal) of over 100 µM, a TGI (COLO 205 colon) of over 100 µM and a TGI (SK-MEL-2 melanoma) of over 100 µM. For the same molecule, the TGI (SK-OV-3 ovarian) was over 100 µM, the TGI (K-562 leukemia) was over 100 µM and the TGI (SN12C renal) was over 100 µM. It also gave a TGI (CAKI-1 renal) of over 100 µM, a TGI (OVCAR-5 ovarian) of over 100 µM and a TGI (MOLT-4 leukemia) of over 100 µM. The TGI (UO-31 renal) was over 100 µM, the TGI (HCC-2998 colon) was over 100 µM and the TGI (IGROV1 ovarian) was over 100 µM. For the same molecule, the TGI (HOP-62 NSCLC) was over 100 µM, the TGI (CCRF-CEM leukemia) was over 100 µM and the TGI (HT29 colon) was 52 µM. The TGI (HCT-15 colon) was over 100 µM.

`Cc1cc(NC[C@H](O)[C@H](O)[C@H](O)CO)c(Sc2cc(=O)[nH]c(=O)[nH]2)cc1C` showed a TGI (T-47D breast) of over 62.5 µM, a TGI (HOP-92 NSCLC) of over 62.5 µM and a TGI (NCI-H522 lung) of over 62.5 µM. For the same molecule, the TGI (SR leukemia) was over 62.5 µM, the TGI (RXF 393 renal) was over 62.5 µM and the TGI (UACC-62 melanoma) was over 62.5 µM. For the same molecule, the TGI (HCT-116 colon) was over 62.5 µM, the TGI (U251 CNS) was over 62.5 µM and the TGI (A549 NSCLC) was over 62.5 µM. It also gave a TGI (NCI-H460 lung) of over 62.5 µM, a TGI (PC-3 prostate) of over 62.5 µM and a TGI (SF-268 CNS) of over 62.5 µM. It also gave a TGI (DU-145 prostate) of over 62.5 µM, a TGI (MDA-MB-231 breast) of over 62.5 µM and a TGI (SNB-75 CNS) of over 62.5 µM. For the same molecule, the TGI (UACC-257 melanoma) was over 62.5 µM, the TGI (KM12 colon) was over 62.5 µM and the TGI (OVCAR-8 ovarian) was over 62.5 µM. It also gave a TGI (MALME-3M melanoma) of over 62.5 µM, a TGI (SNB-19 CNS) of over 62.5 µM and a TGI (M14 melanoma) of over 62.5 µM. For the same molecule, the TGI (OVCAR-4 ovarian) was over 62.5 µM, the TGI (SK-MEL-5 melanoma) was over 62.5 µM and the TGI (NCI-H23 lung) was over 62.5 µM. It also gave a TGI (SK-MEL-28 melanoma) of over 62.5 µM, a TGI (SW-620 colon) of over 62.5 µM and a TGI (EKVX NSCLC) of over 62.5 µM. The TGI (OVCAR-3 ovarian) was over 62.5 µM, the TGI (A498 renal) was over 62.5 µM and the TGI (NCI/ADR-RES ovarian) was over 62.5 µM. The TGI (MDA-N) was over 62.5 µM, the TGI (HS 578T breast) was over 62.5 µM and the TGI (MCF7 breast) was over 62.5 µM. For the same molecule, the TGI (NCI-H226 lung) was over 62.5 µM, the TGI (SF-295 CNS) was over 62.5 µM and the TGI (RPMI-8226 leukemia) was over 62.5 µM. It also gave a TGI (LOX IMVI melanoma) of over 62.5 µM, a TGI (ACHN renal) of over 62.5 µM and a TGI (786-0 renal) of over 62.5 µM. For the same molecule, the TGI (BT-549 breast) was over 62.5 µM, the TGI (MDA-MB-435) was over 62.5 µM and the TGI (TK-10 renal) was over 62.5 µM. It also gave a TGI (COLO 205 colon) of over 62.5 µM, a TGI (SK-MEL-2 melanoma) of over 62.5 µM and a TGI (SK-OV-3 ovarian) of over 62.5 µM. The TGI (K-562 leukemia) was over 62.5 µM, the TGI (SN12C renal) was over 62.5 µM and the TGI (CAKI-1 renal) was over 62.5 µM. The TGI (OVCAR-5 ovarian) was over 62.5 µM, the TGI (MOLT-4 leukemia) was over 62.5 µM and the TGI (UO-31 renal) was over 62.5 µM. The TGI (HCC-2998 colon) was over 62.5 µM, the TGI (IGROV1 ovarian) was over 62.5 µM and the TGI (HOP-62 NSCLC) was over 62.5 µM. For the same molecule, the TGI (CCRF-CEM leukemia) was over 62.5 µM, the TGI (HT29 colon) was over 62.5 µM and the TGI (HCT-15 colon) was over 62.5 µM.

`CC(C)C1=CCC2C(=C1)CCC1C(C)(C(=O)O)CCCC21C` (stereo unspecified) (tested in a mixture with another compound) showed a TGI (T-47D breast) of over 100 µM, a TGI (SF-539 CNS) of over 100 µM and a TGI (HOP-92 NSCLC) of over 100 µM. The TGI (NCI-H522 lung) was over 100 µM, the TGI (SR leukemia) was over 100 µM and the TGI (RXF 393 renal) was over 100 µM. It also gave a TGI (UACC-62 melanoma) of over 100 µM, a TGI (HCT-116 colon) of over 100 µM and a TGI (U251 CNS) of over 100 µM. The TGI (A549 NSCLC) was over 100 µM, the TGI (PC-3 prostate) was over 100 µM and the TGI (SF-268 CNS) was over 100 µM. It also gave a TGI (DU-145 prostate) of over 100 µM, a TGI (MDA-MB-231 breast) of over 100 µM and a TGI (SNB-75 CNS) of over 100 µM. For the same molecule, the TGI (UACC-257 melanoma) was over 100 µM, the TGI (KM12 colon) was over 100 µM and the TGI (OVCAR-8 ovarian) was over 100 µM. It also gave a TGI (MALME-3M melanoma) of over 100 µM, a TGI (M14 melanoma) of over 100 µM and a TGI (OVCAR-4 ovarian) of over 100 µM. It also gave a TGI (SK-MEL-5 melanoma) of over 100 µM, a TGI (NCI-H23 lung) of over 100 µM and a TGI (SK-MEL-28 melanoma) of over 100 µM. For the same molecule, the TGI (SW-620 colon) was over 100 µM, the TGI (EKVX NSCLC) was over 100 µM and the TGI (OVCAR-3 ovarian) was over 100 µM. It also gave a TGI (A498 renal) of over 100 µM, a TGI (NCI/ADR-RES ovarian) of over 100 µM and a TGI (HL-60(TB) leukemia) of over 100 µM. It also gave a TGI (MDA-N) of over 100 µM, a TGI (HS 578T breast) of over 100 µM and a TGI (MCF7 breast) of over 100 µM. For the same molecule, the TGI (NCI-H226 lung) was over 100 µM, the TGI (SF-295 CNS) was over 100 µM and the TGI (RPMI-8226 leukemia) was 70.2 µM. The TGI (LOX IMVI melanoma) was over 100 µM, the TGI (ACHN renal) was over 100 µM and the TGI (786-0 renal) was over 100 µM. For the same molecule, the TGI (BT-549 breast) was over 100 µM, the TGI (MDA-MB-435) was over 100 µM and the TGI (TK-10 renal) was over 100 µM. The TGI (COLO 205 colon) was over 100 µM, the TGI (SK-MEL-2 melanoma) was over 100 µM and the TGI (SK-OV-3 ovarian) was over 100 µM. It also gave a TGI (SN12C renal) of over 100 µM, a TGI (CAKI-1 renal) of over 100 µM and a TGI (OVCAR-5 ovarian) of over 100 µM. It also gave a TGI (MOLT-4 leukemia) of over 100 µM, a TGI (UO-31 renal) of over 100 µM and a TGI (HCC-2998 colon) of over 100 µM. It also gave a TGI (IGROV1 ovarian) of over 100 µM, a TGI (HOP-62 NSCLC) of over 100 µM and a TGI (CCRF-CEM leukemia) of over 100 µM. It also gave a TGI (HT29 colon) of over 100 µM and a TGI (HCT-15 colon) of over 100 µM.
